The text below walks through data of US6979686B1, “Substituted pyrazoles as p38 kinase inhibitors” (Pharmacia Corporation, priority 2001, dated 2005).

The IC50 is the concentration that inhibits the measured activity by half.

Each structure is given as a SMILES string. Counter-ions that a name gives are not always drawn.

T1 sequence (Q16539 whole entry): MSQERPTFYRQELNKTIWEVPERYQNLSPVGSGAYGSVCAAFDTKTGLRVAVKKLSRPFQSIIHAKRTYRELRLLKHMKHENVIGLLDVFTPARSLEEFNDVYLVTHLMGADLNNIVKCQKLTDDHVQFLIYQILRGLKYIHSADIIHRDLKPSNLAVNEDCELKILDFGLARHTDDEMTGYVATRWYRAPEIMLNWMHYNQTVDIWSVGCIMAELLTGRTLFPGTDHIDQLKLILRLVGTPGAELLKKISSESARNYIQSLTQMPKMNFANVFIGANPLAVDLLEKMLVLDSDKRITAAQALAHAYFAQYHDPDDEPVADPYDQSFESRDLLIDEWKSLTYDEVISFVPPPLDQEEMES

One experiment has as its target T1, human p38 kinase alpha (Homo sapiens, UniProt Q16539).
T1 construct: GST (N, cleaved yes); made in house; host or cells: E. coli DH10B
Description: p38 kinase in vitro assay, phosphorylation of biotinylated PHAS-I with 32P-ATP. Type of experiment: biochemical. As to conditions: @ 1.0 uM. The method, then: The coding region of the human p38a cDNA was obtained by PCR-amplification from RNA isolated from the human monocyte cell line THP.1. […] Random primer, dNTP's and Superscript™ reagents were all purchased from Life-Technologies, Gaithersburg, Mass. The reaction was incubated at 42° C. for 1 hour. Amplification of p38 cDNA was performed by aliquoting 5 μl of the reverse transcriptase reaction into a 100 μl PCR reaction containing the following: 80 μl dH2O, 2 μl 50 mM DNTP's, 1 μl each of forward and reverse primers (50 pmol/μl), 10 μl of 10×buffer and 1 μl Expand™ polymerase (Boehringer Mannheim). The PCR primers incorporated BamHI sites onto the 5′ and 3′ end of the amplified fragment, and were purchased from Genosys. […] The PCR amplification was carried out in a DNA Thermal Cycler (Perkin Elmer) by repeating 30 cycles of 94° C. for 1 minute, 60° C. for 1 minute and 68° C. for 2 minutes. After amplification, excess primers and unincorporated dNTP's were removed from the amplified fragment with a Wizard™ PCR prep (Promega) and digested with BamHI (New England Biolabs). The BamHI digested fragment was ligated into BamHI digested PGEX 2T plasmid DNA (PharmaciaBiotech) using T-4 DNA ligase (New England Biolabs) as described by T. Maniatis, Molecular Cloning: A Laboratory Manual, 2nd ed. […] The ligation reaction was transformed into chemically competent E. coli DH10B cells purchased from Life-Technologies following the manufacturer's instructions. Plasmid DNA was isolated from the resulting bacterial colonies using a Promega Wizard™ miniprep kit.
Expression of Human p38a:
Overnight cultures were grown in-Luria Broth (LB) containing […] ampicillin. The next day, 500 ml of fresh LB was inoculated with 10 ml of overnight culture, and grown in a 2 liter flask at 37° C. with constant shaking until the culture reached an absorbance of 0.8 at 600 nm. Expression of the fusion protein was induced by addition of isopropyl b-D-thiogalactosidse (IPTG) to a final concentration of 0.05 mM. The cultures were shaken for three hours at room temperature, and the cells were harvested by centrifugation. The cell pellets were stored frozen until protein purification.
Purification of p38 Kinase-α:
All chemicals were from Sigma Chemical Co. unless noted. Twenty grams of E. coli cell pellet collected from five 1 L shake flask fermentations was resuspended in a volume of PBS (140 mM NaCl, 2.7 mM KCl, 10 mM Na2HPO4, 1.8 mM KH2PO4, pH 7.3) up to 200 ml. The cell suspension was adjusted to 5 mM DTT with 2 M DTT and then split equally into five 50 ml Falcon conical tubes. The cells were sonnicated (Ultrasonics model W375) with a 1 cm probe for 3×1 minutes (pulsed) on ice. Lysed cell material was removed by centrifugation (12,000×g, 15 minutes) and the clarified supernatant applied to glutathione-sepharose resin (Pharmacia).
Glutathione-sepharose Affinity Chromatography:
The resin was collected by centrifugation (600×g, 5 min) and washed with 2×150 ml PBS/1% Triton X-100, followed by 4×40 ml PBS. To cleave the p38 kinase from the GST-p38 fusion protein, the glutathione-sepharose resin was resuspended in 6 ml PBS containing 250 units thrombin protease (Pharmacia, specific activity>7500 units/mg) and mixed gently for 4 hours at room temperature. The glutathione-sepharose resin was removed by centrifugation (600×g, 5 min) and washed 2×6 ml with PBS. The PBS wash fractions and digest supernatant containing p38 kinase protein were pooled and adjusted to 0.3 mM PMSF.
Mono O Anion Exchange Chromatography:
The thrombin-cleaved p38 kinase was further purified by FPLC-anion exchange chromatography.
In the case of `O=S(=O)(NCc1[nH]nc(-c2ccc(F)cc2)c1-c1ccncc1)c1cccc2cccnc12` [Example B-0116], the “P38 alpha kinase % inhib @ conc.” value is on record as 73.0% @.

As for `O=S(=O)(NCc1[nH]nc(-c2ccc(F)cc2)c1-c1ccncc1)c1cc(Br)c(Br)s1` [Example B-0136], the “P38 alpha kinase % inhib @ conc.” value amounted to 77.0% @.

The experiment is the same for the next values; noted with them: @ 1.0 uM; read-out: P38 alpha kinase % inhib @ conc.
Consider `COCC(=O)NCc1[nH]nc(-c2ccc(F)cc2)c1-c1ccncc1` [Example B-0003], for which the inhibition at 1 µM is 70%. The same measure, in the same setting: under `CC(=O)OCC(=O)NCc1[nH]nc(-c2ccc(F)cc2)c1-c1ccncc1` [Example B-0004] stands 80%. Regarding `O=C(COCc1ccccc1)NCc1[nH]nc(-c2ccc(F)cc2)c1-c1ccncc1` [Example B-0006], the inhibition at 1 µM is 82%. On the same count and under the same terms, under `O=C(NCc1[nH]nc(-c2ccc(F)cc2)c1-c1ccncc1)c1ccc(Br)cc1` [Example B-0007] stands 74%; under `O=C(NCc1[nH]nc(-c2ccc(F)cc2)c1-c1ccncc1)c1ccc(-c2ccccc2)cc1` [Example B-0008], 42%.

As to `CCCCCc1ccc(C(=O)NCc2[nH]nc(-c3ccc(F)cc3)c2-c2ccncc2)cc1` [Example B-0012], the inhibition at 1 µM was 30%. Regarding `COc1ccc(OC)c(CC(=O)NCc2[nH]nc(-c3ccc(F)cc3)c2-c2ccncc2)c1` [Example B-0013], the inhibition at 1 µM is 70%.

Consider `CCCCC(=O)NCc1[nH]nc(-c2ccc(F)cc2)c1-c1ccncc1` [Example B-0014], for which the inhibition at 1 µM stood at 79%. Still for that read-out and setting: to `CCCCCCC(=O)NCc1[nH]nc(-c2ccc(F)cc2)c1-c1ccncc1` [Example B-0015] belongs 82%; to `O=C(NCc1[nH]nc(-c2ccc(F)cc2)c1-c1ccncc1)c1ccc(I)cc1` [Example B-0017], 56%. On to `O=C(NCc1[nH]nc(-c2ccc(F)cc2)c1-c1ccncc1)C(=O)c1c[nH]c2ccccc12` [Example B-0018], for which the inhibition at 1 µM stood at 60%. Turning to `O=C(NCc1[nH]nc(-c2ccc(F)cc2)c1-c1ccncc1)c1cc(Cl)cc(Cl)c1` [Example B-0020], the inhibition at 1 µM worked out at 73%. The same measure, in the same setting: under `Cc1ccc(C(=O)NCc2[nH]nc(-c3ccc(F)cc3)c2-c2ccncc2)cc1` [Example B-0021] stands 68%. On the same count and under the same terms, under `O=C(NCc1[nH]nc(-c2ccc(F)cc2)c1-c1ccncc1)c1ccc([N+](=O)[O-])cc1` [Example B-0022] stands 69%. Still for that read-out and setting: under `N#Cc1cccc(C(=O)NCc2[nH]nc(-c3ccc(F)cc3)c2-c2ccncc2)c1` [Example B-0023] stands 90%; under `O=C(NCc1[nH]nc(-c2ccc(F)cc2)c1-c1ccncc1)c1ccccc1[N+](=O)[O-]` [Example B-0024], 94%.

Turning to `O=C(NCc1[nH]nc(-c2ccc(F)cc2)c1-c1ccncc1)c1cc2ccccc2s1` [Example B-0029], the inhibition at 1 µM turned out to be 91%. For the compound `CC(C)c1cc(C(C)C)c(C(=O)NCc2[nH]nc(-c3ccc(F)cc3)c2-c2ccncc2)c(C(C)C)c1` [Example B-0030], the inhibition at 1 µM is 92%. `O=C(NCc1[nH]nc(-c2ccc(F)cc2)c1-c1ccncc1)C(c1ccccc1)c1ccccc1` [Example B-0032]: the inhibition at 1 µM was found to be 94%.

For the compound `COc1ccc(C(=O)NCc2[nH]nc(-c3ccc(F)cc3)c2-c2ccncc2)cc1` [Example B-0039], the inhibition at 1 µM is 89%.

Regarding `COc1cccc(CC(=O)NCc2[nH]nc(-c3ccc(F)cc3)c2-c2ccncc2)c1` [Example B-0040], the inhibition at 1 µM was found to be 93%. Take `CCCCOc1ccc(C(=O)NCc2[nH]nc(-c3ccc(F)cc3)c2-c2ccncc2)cc1` [Example B-0041]: the inhibition at 1 µM came to 65%.

`CCC(Oc1ccccc1)C(=O)NCc1[nH]nc(-c2ccc(F)cc2)c1-c1ccncc1` (stereo not shown) [Example B-0047]: the inhibition at 1 µM worked out at 94%.

Still in this experiment, the particulars now being: @ 10.0 uM.
Regarding `CCCC(=O)COC(=O)NCc1[nH]nc(-c2ccc(F)cc2)c1-c1ccncc1` [Example B-0177], the “P38 alpha kinase % inhib @ conc.” value is 70.0% @.

The same experiment, now with this note: Table 8; 1% DMSO; read-out: p38α Kinase Assay IC50.
Take `O=C(O)c1n[nH]c(-c2ccc(F)cc2)c1-c1ccncc1` [A-313, Step 1, 5-(4-fluorophenyl)-4-(4pyridinyl)-1H-pyrazole-3-carboxylic acid, monohydrate]: the IC50 turned out to be 1340 nM. For the compound `CN1CCN(Cc2n[nH]c(-c3ccc(F)cc3)c2-c2ccncc2)CC1` [A-313, Step 3, 1-[[5-(4-fluorophenyl)-4-(4-pyridinyl)-1H-pyrazol-3-yl]methyl]-4-methylpiperazine], the IC50 amounted to 36 nM. The same measure, in the same setting: under `O=C(c1n[nH]c(-c2ccc(F)cc2)c1-c1ccncc1)N1CCNCC1` [A-314, Step 1, 1-[[5-(4-fluorophenyl)-4-(4-pyridinyl)-1H-pyrazol-3-yl]carbonyl]piperazine, monhydrate] stands 850 nM. On to `O=C(O)CCC(=O)N1CCN(c2n[nH]c(-c3ccc(Cl)cc3)c2-c2ccncc2)CC1` [A-321 (dihydrate), 4-[5-(4-chlorophenyl)-4-(4-pyridinyl)-1H-pyrazol-3-yl]-γ-oxo-1-piperazinebutanoic acid, dihydrate], for which the 50% inhibitory concentration (IC50) amounted to 770 nM. For `C#CCn1nc(N2CCNCC2)c(-c2ccncc2)c1-c1ccc(Cl)cc1` [Example A-318, 1-[5-(4-chlorophenyl)-4-(4-pyridinyl)-1-(2-propynyl)-1H-pyrazol-3-yl]piperazine, trihydrochloride monohydrate], the IC50 was 290 nM. With `COC(=O)N1CCN(c2[nH]nc(-c3ccc(Cl)cc3)c2-c2ccncc2)CC1` [Example A-319, methyl 4-[5-(4-chlorophenyl)-4-(4-pyridinyl)-1H-pyrazol-3-yl]-1-piperazinecarboxylate, monohydrate], the IC50 came out at 6060 nM.

As to `CS(=O)(=O)N1CCN(c2n[nH]c(-c3ccc(Cl)cc3)c2-c2ccncc2)CC1` [Example A-320, 1-[5-(4-chlorophenyl)-4-(4-pyridinyl)-1H-pyrazol-3-yl]-4-(methylsulfonyl)piperazine, monohydrate], the IC50 was 270 nM.

As to `Fc1ccc(-c2[nH]ncc2-c2ccnc(Nc3ccccc3F)n2)cc1` [Example A-325, N-(2-fluorophenyl)-4-[3-(4-fluorophenyl)-1H-pyrazol-4-yl]-2-pyrimidinamine], the IC50 turned out to be 21 nM. Take `Clc1ccc(-c2[nH]nc(N3CCNCC3)c2-c2ccncc2)cc1` [Example A-328, 1-[5-(4-chlorophenyl)-4-(4-pyridinyl)-1H-pyrazol-3-yl]piperazine]: the IC50 is 12 nM. Still for that read-out and setting: to `Clc1ccc(-c2[nH]nc(NC3CCNCC3)c2-c2ccncc2)cc1` [Example A-332, N-[5-(4-chlorophenyl)-4-(4-pyridinyl)-3H-pyrazol-3-yl]-4-piperidineamine, trihydrochloride, monohydrate] belongs 40 nM.

Staying with this experiment, now noted: activated human p38 kinase alpha, PHAS-I substrate, 50 μM unlabeled ATP; read-out: p38 kinase IC50.
As to `Cc1cccc(-c2n[nH]c(-c3cccc(C)c3)c2-c2ccncc2)c1` [Example A-28], the concentration for half-maximal inhibition (IC50) was 300 nM. Regarding `Cc1[nH]nc(-c2cccc(F)c2C)c1-c1ccncc1` [Example A-33], the IC50 was 2500 nM. Take `Cc1cc(C)cc(-c2n[nH]c(C)c2-c2ccncc2)c1` [Example A-34]: the IC50 turned out to be 8000 nM.

Turning to `Cc1n[nH]c(-c2ccccc2F)c1-c1ccncc1` [Example A-40], the IC50 amounted to 1300 nM. Still for that read-out and setting: under `Cc1[nH]nc(-c2cccc(C(F)(F)F)c2)c1-c1ccncc1` [Example A-42] stands 300 nM; under `Cc1[nH]nc(-c2ccc(Cl)cc2Cl)c1-c1ccncc1` [Example A-50], 2300 nM; under `CCOC(=O)CCc1[nH]nc(-c2ccc(Cl)cc2)c1-c1ccncc1` [Example A-53], 900 nM.
